For test [1], the system named is carrageenan. The test can be described thus: Carrageenan (CAR) test, paw edema volume by plethysmometer. It counts as in vivo, Wistar male rats. As to conditions: for effect on the formation of the edema by carrageenan (paw volume): 5 mg/kg orally, alone, 30 minutes to 6 hours after carrageenan (FIG. 2a); for reduction of the volume of the legs after CAR: all time points (FIG. 3a). Here is the method:
The carrageenan (CAR) test was performed according to a protocol that provides intra-plantar injection of carrageenan in rats and administration of the active ingredient orally by gavage. This is a standard inflammation test. The 1% (weight/volume) carrageenan solution (Sigma) was prepared in sterile saline and subsequently kept at 37° C. for 1 hour to obtain complete solubilization. The paw edema was induced in Wistar male rats by injecting 200 μl of carrageenan into the plantar aponeurosis of the right hind paw. The increase in size of the treated paw was measured prior to induction and 30 minutes after injection of the inflammatory agent using a plethysmometer (model 7140; Ugo Basile). The subsequent paw size measurements were taken at 60-minute intervals with respect to the first measurement, for a total of 7 measurements. The difference between the values obtained from the treated animals and the control animals was calculated and assessed statistically for all six hours.
A general note: In the carrageenan paw model, swelling and tenderness develop within hours.

Test [2] deals with carrageenan. The test can be described thus: Carrageenan (CAR) test, hyperalgesic response, paw withdrawal latency (Plantar Test). As to conditions: for lengthening of the retraction time compared to the control: 5 mg/kg, individually administered (FIG. 2b); for increase of latency time after CAR: all time points (FIG. 3b). Type of test: in vivo, Wistar male rats. Here is the method:
The carrageenan (CAR) test was performed according to a protocol that provides intra-plantar injection of carrageenan in rats and administration of the active ingredient orally by gavage. This is a standard inflammation test. The 1% (weight/volume) carrageenan solution (Sigma) was prepared in sterile saline and subsequently kept at 37° C. for 1 hour to obtain complete solubilization. The paw edema was induced in Wistar male rats by injecting 200 μl of carrageenan into the plantar aponeurosis of the right hind paw. Hyperalgesic response to heat was measured at various time points (0, 30 min, 1, 2, 3, 4, 5 and 6 h) in accordance with the method described by Hargreaves et al. (Pain, 32 (1988), 77-88) using the Plantar Test 7371 (Ugo Basile, Italy). In short, the animals were allowed to move freely in an open transparent plastic chamber. After a period of acclimatization, a heat source radiating infrared light (IR 60) was placed under the glass floor and concentrated on the hind paw. When the animal felt pain and withdrew its paw, the source was turned off and the time measured was recorded.

Test [3] deals with sciatic nerve ligation. The test can be described thus: Mechanical allodynia after sciatic nerve ligation (neuropathic pain model), Dynamic Plantar Aesthesiometer. It counts as in vivo, mice of the C57BL/6J strain. As to conditions: alone. Here is the method:
The experiments were carried out by using male mice of the C57BL/6J strain with a weight ranging between 25 and 30 g; 10 animals per group were used. The animals were anesthetized with sodium pentobarbital (60 mg/kg, i.p.) and subjected to a surgical procedure of sciatic nerve ligation capable of inducing neuropathic pain in accordance with the method described by Bennet and Xie (1988, Pain; 33:87-107). Sham animals were used as a control. The products were administered p.o. with a tube, suspended in 2% CarboxymethylCellulose. The mechanical allodynia was measured by using the Dynamic Plantar Aesthesiometer equipment of the Company Ugo Basile-Varese, Italy. The values in the table are referred to the weight, expressed in grams, to which the animal object of the experiment, subjected thereto, withdraws its paw when feeling pain.

For test [4], the system named is sciatic nerve ligation. As to conditions: 100 mg/kg; cited from earlier work.
Test [5] relates to sciatic nerve ligation. Conditions: 10 mg/kg; cited from earlier work.

The values that follow come from patent publication US12364678B2, “Pharmaceutical composition comprising palmitoylethanolamide and L- Acetylcarnitine” (EPITECH GROUP S.P.A., priority 2014, dated 2025).

For the compound `CC(=O)O[C@H](CC(=O)[O-])C[N+](C)(C)C` [LAC, L-Acetylcarnitine], the “effect on the formation of the edema by carrageenan (paw volume)” value in the test with carrageenan [1] is “does not have a significant effect”. Also, the “reduction of the volume of the legs after CAR” value with carrageenan [1] (LAC 3.0 mg/kg oral) and in the test with carrageenan [1] (LAC 5.0 mg/kg oral) was “did not achieve a significant reduction” in each case. Also, the “lengthening of the retraction time compared to the control” value in the test with carrageenan [2] is recorded as “do not show any effect”. Further, the “increase of latency time after CAR” value with carrageenan [2] (LAC 3.0 mg/kg oral) and with carrageenan [2] (LAC 5.0 mg/kg oral) was “did not achieve a significant increase” each time. In addition, the figures for the “alleviation of the neuropathic pain (mechanical allodynia)” value with sciatic nerve ligation [3] (10 mg/kg p.o.) and in the test on sciatic nerve ligation [3] (100 mg/kg p.o.) were “do not cause a significant activity” and “significant alleviation”, respectively. For the same compound, in the test with sciatic nerve ligation [4], the mechanical allodynia entry is “decrease the mechanical allodynia”.
With `CCCCCCCCCCCCCCCC(=O)NCCO` [PEA-m, palmitoylethanolamide], in the test on carrageenan [1], the “effect on the formation of the edema by carrageenan (paw volume)” value is recorded as “does not have a significant effect”. Moreover, the “lengthening of the retraction time compared to the control” value in the test on carrageenan [2] is on record as “do not show any effect”.
On to `CCCCCCCCCCCCCCCC(=O)NCCO` [PEA-um, palmitoylethanolamide], for which the “alleviation of the neuropathic pain (mechanical allodynia)” value in the test on sciatic nerve ligation [3] (5 mg/kg p.o.) was “do not cause a significant activity”; in the test on sciatic nerve ligation [3] (10 mg/kg p.o.) it was “significant alleviation”.
Consider `CCCCCCCCCCCCCCCC(=O)NCCO` [palmitoylethanolamide], for which the “effect in the neuropathic pain model” value in the test with sciatic nerve ligation [5] was “particularly relevant effect”.
